In patent publication US20120076776A1, “METHOD FOR TREATING INFLAMATION BY LYMPHOCYTE DEPLETION OR SEQUESTERING” (priority 2010, published 2012):

Legend:
[1] = system: lung tissue neutrophils (MPO+); test: MPO immunohistochemistry of lung tissue at necropsy; assay type: in vivo, Yorkshire (Sus scrofa domestica) swine; settings: FTY720 0.3 mg/kg
Protocol: Immunohistochemical detection of MPO was performed on sections of formalin fixed, paraffin embedded blocks of swine lung. Antigen retrieval was performed using Proteinase K (DAKO, Carpenteria Calif.) for 30 minutes. Polyclonal rabbit, anti-human MPO (DAKO, Carpenteria Calif.) was used at a ready to use dilution and incubated at room temperature for 30 minutes. Envision, anti-rabbit (DAKO, Carpenteria Calif.) was applied as a secondary antibody for 30 minutes at room temperature. The chromogen applied was 3,3′ Diaminobenzidine (DAKO, Carpenteria, Calif.) for 10 minutes. The sections were counterstained with Hematoxylin (DAKO, Carpenteria, Calif.). External negative control was processed identically as with MPO but the primary antibody was substituted with normal rabbit serum. […] Cells with appropriate nuclear morphology and the presence of light to intensely reactive granules were counted; 5 random 40× fields were assessed.
Immunohistochemical detection of MPO was performed on sections of formalin fixed, paraffin embedded blocks of lung tissue. […] Polyclonal rabbit, anti-human MPO (DAKO, Carpenteria Calif.) was used at a ready to use dilution and incubated at room temperature for 30 minutes. […] Cells with appropriate nuclear morphology and the presence of light to intensely reactive granules were counted; 5 random 40× fields were assessed.

[2] = system: immune-related genes in liver tissue; test: QRT-PCR gene transcript expression in liver tissue at necropsy; settings: FTY720 n=7 vs control n=5
[3] = system: central lymphocytes (CD3+); test: CD3 immunohistochemistry of mesenteric lymph node and spleen at necropsy (ACIS); assay type: in vivo, Yorkshire (Sus scrofa domestica) swine; settings: FTY720 0.3 mg/kg; both mesenteric lymph node and spleen at necropsy
Protocol: Immunohistochemical detection of CD3 was performed on sections of formalin fixed, paraffin embedded blocks of swine lymph node and spleen. Antigen retrieval was performed using Trilogy (Cell Marque, Rocklin, Calif.) for 30 minutes. Rat, anti-human CD3, monoclonal antibody (AbD Serotec, Raleigh, N.C.) was used at a dilution of 1:50 and incubated overnight at 4 C. Biotinylated goat anti-rat IgG specific polyclonal antibody (BD Biosciences, San Jose, Calif.) was applied as a secondary antibody at a 1:100 dilution for 30 minutes at room temperature. The chromogen applied was 3, 3′ Diaminobenzidine (DAKO, Carpenteria, Calif.) for 10 minutes. The sections were counterstained with Hematoxylin (DAKO, Carpenteria, Calif.). External negative controls were processed identically as CD3 but the primary antibody was substituted with normal rat serum. […] An Automated Cellular Imaging System (ACIS) was used to quantify the CD3 immunohistochemistry staining. By using the ACIS system, CD3 immunohistochemical staining could be specifically quantitated by determining how much brown (positive CD3 immunohistochemical reaction) was in the image compared to the amount of blue (hematoxylin nuclear counterstain).
Tissue slides were deparaffinized using xylene followed by graded baths of ethanol. […] An Automated Cellular Imaging System (ACIS) was used to quantify the CD3 immunohistochemistry staining. […]

[4] = system: IRI; settings: various animal models; cited from earlier work
[5] = system: experimental hemorrhagic shock induced by porcine liver injury; test: Liver injury hemorrhagic shock model: survival, blood loss, hemodynamics; assay type: in vivo, Yorkshire (Sus scrofa domestica) swine; settings: FTY720 0.3 mg/kg 15 min after liver injury
Protocol: Male and female 3-12 month Yorkshire (Sus scrofa domestica) swine weighing 25-35 kg were acquired from ABI farms (Donsboro, Pa.). Feed was withheld 12 hours before surgery. Prior to surgery, animals were sedated and anesthesia induced with intramuscular ketamine hydrochloride (12-20 mg/kg of weight) and xylazine (2.2 mg/kg of weight) as well as atropine sulfate (0.05 mg/kg of weight) to decrease tracheal secretions. Mask ventilation with Isoflurane (5.0%) was used to facilitate endotracheal intubation. Pigs were ventilated (Ohmeda 7800 series ventilator, Datex, Madison, Wis.) at 12-15 breaths/min and tidal volume 10 mL/kg. Anesthesia was maintained with Isoflurane (1.5-2.5%) in 21-25% O2.
Following adequate anesthesia the right external and internal jugular veins and carotid artery were isolated. A 9Fr dual-lumen, tunneled Hickman catheter was placed in the external jugular vein for drug infusion and blood collection during the survival period. […] Rectal temperature was monitored continuously. […]
All animal groups underwent a standardized liver injury and resuscitation protocol. […] Bleeding was spontaneous and removed continually via suction and quantified by weight. […]
After a total of 2 hours, the pre-hospital phase was completed and hospital arrival was simulated. […] The abdomen was reopened, residual blood suctioned, sponges collected, and blood loss quantified by weight. […]

[6] = system: peripheral neutrophils; test: Peripheral neutrophil counts during hemorrhage and reperfusion; assay type: in vivo, Yorkshire (Sus scrofa domestica) swine; settings: FTY720 0.3 mg/kg; reperfusion period
Protocol: All functional laboratory assays were performed at 37° C., consistent with recorded normothermic animal temperatures (37.5±0.9° C.). Blood samples were collected at 0, 15, 30, 60, 90, and 120 minutes during the hemorrhage period and at 18, 24, 36, 48, and 72 hours during the survival period. Complete blood count with differentiation was performed with a cell counter (NDvia120 Hematology System, Siemens, Deerfield, Ill.).
Blood samples were collected at 0, 15, 30, 60, 90, and 120 minutes during the hemorrhage period and at 18, 24, 36, 48, and 72 hours during the survival period. Complete blood counts with differentiation were obtained using a cell counter (NDvia120 Hematology System, Siemens, Deerfield, Ill.).

[7] = system: renal transplant IRI; settings: rat, in vivo; cited from earlier work

Question: For `CCCCCCCCc1ccc(CCC(N)(CO)CO)cc1` [FTY720], which “lung tissue neutrophils vs control” value [1] is on record?
Answer: significantly decreased

Question: What about the “BCL-2 transcript expression in liver vs control” value [2] of the same molecule?
Answer: up-regulated

Question: What about the “FAS transcript expression in liver vs control” value [2] of the same molecule?
Answer: down regulated

Question: And the “HSP70 transcript expression in liver vs control” value [2]?
Answer: down-regulated

Question: And the “INOS transcript expression in liver vs control” value [2]?
Answer: down-regulated

Question: What about the “NFκB transcript expression in liver vs control” value [2] of the same molecule?
Answer: down-regulated

Question: And the “VCAM transcript expression in liver vs control” value [2]?
Answer: down-regulated

Question: And the “central lymphocyte sequestration (CD3 staining) vs control” value [3]?
Answer: significant central lymphocyte sequestration

Question: And the “effect on IRI” value [4]?
Answer: ameliorate IRI

Question: And the “reperfusion period survival vs control” value [5]?
Answer: statistically improved

Question: And the “overall survival vs control” value ([5]; 72 hours)?
Answer: improved compared to control although not statistically significant

Question: What about the “peripheral neutrophil response vs control” value [6] of the same molecule?
Answer: attenuated

Question: What about the adhesion molecules expression [7] of the same molecule?
Answer: no change

Question: And the intragraft neutrophil infiltration [7]?
Answer: reduced

Question: What about the renal function [7] of the same molecule?
Answer: improved renal function
